Drawing on US9409952B2, “Peptide-compound cyclization method” (Chugai Seiyaku Kabushiki Kaisha, priority 2011, dated 2016), this text covers Papp and microsomal CLint for 16 compounds.

The nature of series [1]: PAMPA (parallel artificial membrane permeability assay). It is filed as in vitro ADME. The following applies: PAMPA; membrane permeation rate (Pe); 50 mM MOPSO buffer pH 6.5 with 5.0% glycocholic acid, 37° C., 18 hours; read-out: iPAMPA Pe. Put shortly:
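Artificial membrane was 10% (w/v) egg lecithin plus 0.5% (w/v) cholesterol in dodecane on a PVDF filter. A 10 mM DMSO stock was added at 0.5% (v/v) to donor buffer (50 mM MOPSO, pH 6.5, 5.0% glycocholic acid). After 18 h at 37 °C, LC/MS or LC/UV gave donor and acceptor levels for Pe.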
Background: In PAMPA a lipid-coated filter parts donor from acceptor wells.

Series [2] is described as follows: Metabolic stability in human hepatic microsome. The class given is in vitro ADME. The following applies: microsomes, pH 7.4; human hepatic microsome, NADPH(+); read-out: CL NADPH(+).

The structures appear in SMILES notation. Starred links: 1 amine or outer side, 2 acyl side, 3 side chain; linkers in the order of their positions; H or OH if unused. Positions of bridges follow the written chain, without caps; N, C: chain ends. Non-standard residues stand in square brackets, D forms with d. Residues, ends and D or L forms follow the SMILES beside them. *: point of attachment. NMeF = CN[C@@H](Cc1ccccc1)C(=O)O; NMeGABA = CN(CCCC(=O)[*:2])[*:1]; NMeβAla = CN(CCC(=O)[*:2])[*:1]; NMeL = CN[C@@H](CC(C)C)C(=O)O; NMeV = CN[C@H](C(=O)O)C(C)C; NMeA = CN[C@@H](C)C(=O)O; Piperidide = C1CCN(*)CC1; dNMeA = CN[C@H](C)C(=O)O; Sar = CNCC(=O)O

On to `CC(C)C[C@H]1C(=O)N(C)[C@@H](Cc2ccccc2)C(=O)N[C@@H]([C@@H](C)O)C(=O)N(C)[C@@H](C)C(=O)N[C@@H](C)C(=O)N(C)[C@@H](Cc2ccccc2)C(=O)N[C@@H](C)C(=O)N(C)[C@@H](C(C)C)C(=O)N(C)[C@@H](C)C(=O)N[C@H](C(=O)N(C)[C@@H](Cc2ccccc2)C(=O)N[C@@H](C)C(=O)N2CCCCC2)CC(=O)N(C)[C@H](C)C(=O)N1C` [DP-348] ([dNMeA][NMeL][NMeF]T[NMeA]A[NMeF]A[NMeV][NMeA]D[NMeF]A-Piperidide; lactam N-11), for which, in series [1], the Papp at 18 hours, 50 µM amounted to 19 ×10⁻⁶ cm/s. Moreover, in series [2], the microsomal CLint at 1 uM turned out to be 17 µL/min/mg.

With `CC(C)C[C@H]1C(=O)N[C@H](C(=O)N(C)[C@@H](Cc2ccccc2)C(=O)N[C@@H](C)C(=O)N2CCCCC2)CC(=O)N(C)[C@@H](C)C(=O)N(C)[C@@H](C)C(=O)N[C@@H](C(C)C)C(=O)N(C)[C@@H](C)C(=O)N(C)[C@@H](Cc2ccccc2)C(=O)N[C@@H]([C@@H](C)O)C(=O)N(C)CC(=O)N(C)[C@@H](C)C(=O)N1C` [DP-349] ([NMeA][NMeA]V[NMeA][NMeF]T[Sar][NMeA][NMeL]D[NMeF]A-Piperidide; lactam N-10), in series [1], the Papp at 18 hours, 50 µM turned out to be 3.9 ×10⁻⁶ cm/s. The microsomal CLint at 1 uM in series [2] amounted to 13 µL/min/mg.

In the case of `CC(C)C[C@@H]1NC(=O)[C@H](CC(C)C)N(C)C(=O)[C@H](C)N(C)C(=O)C[C@@H](C(=O)N(C)[C@@H](Cc2ccccc2)C(=O)N[C@@H](C)C(=O)N2CCCCC2)NC(=O)[C@H](CC(C)C)N(C)C(=O)[C@H](Cc2ccccc2)NC(=O)[C@H](Cc2ccccc2)N(C)C(=O)[C@H](C)NC(=O)[C@H]([C@@H](C)O)NC(=O)[C@H](CC(C)C)N(C)C1=O` [DP-350] ([NMeA][NMeL]L[NMeL]TA[NMeF]F[NMeL]D[NMeF]A-Piperidide; lactam N-10), the Papp at 18 hours, 50 µM in series [1] worked out at 2 ×10⁻⁶ cm/s. In addition, the microsomal CLint at 1 uM in series [2] came out at 29 µL/min/mg.

`CC(C)C[C@@H]1NC(=O)[C@H]([C@@H](C)O)NC(=O)[C@H](CC(C)C)N(C)C(=O)[C@H](C)N(C)C(=O)[C@H](Cc2ccccc2)N(C)C(=O)[C@H](Cc2ccccc2)NC(=O)[C@H](CC(C)C)N(C)C(=O)CCN(C)C(=O)C[C@@H](C(=O)N(C)[C@@H](Cc2ccccc2)C(=O)N[C@@H](C)C(=O)N2CCCCC2)NC(=O)[C@H](CC(C)C)N(C)C1=O` [DP-351] ([NMeβAla][NMeL]F[NMeF][NMeA][NMeL]TL[NMeL]D[NMeF]A-Piperidide; lactam N-10): in series [1], the Papp at 18 hours, 50 µM was 63 ×10⁻⁶ cm/s. The microsomal CLint at 1 uM in series [2] was 51 µL/min/mg.

Turning to `CC(C)C[C@H]1C(=O)N[C@@H](Cc2ccccc2)C(=O)N(C)[C@@H](C(C)C)C(=O)N[C@@H]([C@@H](C)O)C(=O)N(C)[C@@H](C)C(=O)NCC(=O)N(C)[C@@H](Cc2ccccc2)C(=O)N[C@H](C(=O)N(C)[C@@H](Cc2ccccc2)C(=O)N[C@@H](C)C(=O)N2CCCCC2)CC(=O)N(C)CCC(=O)N[C@@H](C(C)C)C(=O)N1C` [DP-352] ([NMeβAla]V[NMeL]F[NMeV]T[NMeA]G[NMeF]D[NMeF]A-Piperidide; lactam N-10), in series [1], the Papp at 18 hours, 50 µM turned out to be 25 ×10⁻⁶ cm/s. In addition, in series [2], the microsomal CLint at 1 uM worked out at 66 µL/min/mg.

Consider `CC(C)C[C@H]1C(=O)N[C@@H]([C@@H](C)O)C(=O)N(C)[C@@H](C)C(=O)N[C@H](C(=O)N(C)[C@@H](Cc2ccccc2)C(=O)N[C@@H](C)C(=O)N2CCCCC2)CC(=O)N(C)[C@H](C)C(=O)N(C)[C@@H](Cc2ccccc2)C(=O)N(C)[C@@H](C)C(=O)N[C@@H](C)C(=O)N(C)[C@@H](C)C(=O)N(C)[C@@H](Cc2ccccc2)C(=O)N1C` [DP-353] ([dNMeA][NMeF][NMeA]A[NMeA][NMeF][NMeL]T[NMeA]D[NMeF]A-Piperidide; lactam N-10), for which the Papp at 18 hours, 50 µM in series [1] was determined as 16 ×10⁻⁶ cm/s. Besides, the microsomal CLint at 1 uM in series [2] amounted to 13 µL/min/mg.

As for `CC(C)C[C@H]1C(=O)N[C@@H](C)C(=O)N(C)[C@@H](C)C(=O)N[C@H](C(=O)N(C)[C@@H](Cc2ccccc2)C(=O)N[C@@H](C)C(=O)N2CCCCC2)CC(=O)N(C)[C@H](C)C(=O)N(C)[C@@H](C(C)C)C(=O)N(C)[C@@H](C)C(=O)N[C@@H](Cc2ccccc2)C(=O)N[C@@H]([C@@H](C)O)C(=O)N(C)[C@@H](C)C(=O)N1C` [DP-354] ([dNMeA][NMeV][NMeA]FT[NMeA][NMeL]A[NMeA]D[NMeF]A-Piperidide; lactam N-10), in series [1], the Papp at 18 hours, 50 µM is 3.3 ×10⁻⁶ cm/s. Besides, in series [2], the microsomal CLint at 1 uM was 8 µL/min/mg.

For `CC(C)C[C@H]1C(=O)N[C@@H](Cc2ccccc2)C(=O)N[C@@H]([C@@H](C)O)C(=O)N(C)[C@@H](C)C(=O)N(C)[C@@H](Cc2ccccc2)C(=O)N(C)[C@@H](C(C)C)C(=O)NCC(=O)N[C@H](C(=O)N(C)[C@@H](Cc2ccccc2)C(=O)N[C@@H](C)C(=O)N2CCCCC2)CC(=O)N(C)[C@H](C)C(=O)N[C@@H](C)C(=O)N1C` [DP-355] ([dNMeA]A[NMeL]FT[NMeA][NMeF][NMeV]GD[NMeF]A-Piperidide; lactam N-10), in series [1], the Papp at 18 hours, 50 µM was determined as 17 ×10⁻⁶ cm/s. For the same compound, the microsomal CLint at 1 uM in series [2] amounted to 66 µL/min/mg.

Regarding `CC(C)C[C@H]1C(=O)N[C@@H]([C@@H](C)O)C(=O)NCC(=O)N[C@@H](C(C)C)C(=O)N[C@H](C(=O)N(C)[C@@H](Cc2ccccc2)C(=O)N[C@@H](C)C(=O)N2CCCCC2)CC(=O)N(C)[C@H](C)C(=O)N(C)[C@@H](C(C)C)C(=O)N[C@@H](Cc2ccccc2)C(=O)N(C)[C@@H](Cc2ccccc2)C(=O)N(C)[C@@H](C)C(=O)N1C` [DP-356] ([dNMeA][NMeV]F[NMeF][NMeA][NMeL]TGVD[NMeF]A-Piperidide; lactam N-10), the Papp at 18 hours, 50 µM in series [1] came out at 34 ×10⁻⁶ cm/s. Moreover, in series [2], the microsomal CLint at 1 uM was found to be 66 µL/min/mg.

For the compound `CC(C)C[C@H]1C(=O)N(C)[C@@H](C)C(=O)N[C@H](C(=O)N(C)[C@@H](Cc2ccccc2)C(=O)N[C@@H](C)C(=O)N2CCCCC2)CC(=O)N(C)[C@@H](C)C(=O)N(C)[C@@H](Cc2ccccc2)C(=O)N(C)[C@@H](C)C(=O)N[C@@H]([C@@H](C)O)C(=O)N(C)[C@@H](C)C(=O)N[C@@H](C(C)C)C(=O)N1C` [DP-357] ([NMeA][NMeF][NMeA]T[NMeA]V[NMeL][NMeA]D[NMeF]A-Piperidide; lactam N-9), the Papp at 18 hours, 50 µM in series [1] stood at 14 ×10⁻⁶ cm/s. For the same compound, the microsomal CLint at 1 uM in series [2] was 56 µL/min/mg.

Regarding `CC(C)C[C@H]1C(=O)N[C@@H]([C@@H](C)O)C(=O)N(C)[C@@H](C)C(=O)N(C)[C@@H](CC(C)C)C(=O)N[C@H](C(=O)N(C)[C@@H](Cc2ccccc2)C(=O)N[C@@H](C)C(=O)N2CCCCC2)CC(=O)N(C)CCC(=O)N(C)[C@@H](Cc2ccccc2)C(=O)N(C)[C@@H](C(C)C)C(=O)N[C@@H](C(C)C)C(=O)N1C` [DP-358] ([NMeβAla][NMeF][NMeV]V[NMeL]T[NMeA][NMeL]D[NMeF]A-Piperidide; lactam N-9), the Papp at 18 hours, 50 µM in series [1] is 32 ×10⁻⁶ cm/s. Besides, the microsomal CLint at 1 uM in series [2] was determined as 82 µL/min/mg.

Consider `CC(C)C[C@H]1C(=O)N(C)[C@@H](C)C(=O)N[C@@H]([C@@H](C)O)C(=O)N(C)[C@@H](C)C(=O)N(C)[C@@H](Cc2ccccc2)C(=O)N[C@@H](Cc2ccccc2)C(=O)N[C@H](C(=O)N(C)[C@@H](Cc2ccccc2)C(=O)N[C@@H](C)C(=O)N2CCCCC2)CC(=O)N(C)CCC(=O)N(C)[C@@H](C)C(=O)N[C@@H](C)C(=O)N(C)CC(=O)N1C` [DP-361] ([NMeβAla][NMeA]A[Sar][NMeL][NMeA]T[NMeA][NMeF]FD[NMeF]A-Piperidide; lactam N-11), for which the Papp at 18 hours, 50 µM in series [1] was determined as 1.5 ×10⁻⁶ cm/s. The microsomal CLint at 1 uM in series [2] was found to be 9 µL/min/mg.

Turning to `CC(C)C[C@H]1C(=O)N[C@@H](Cc2ccccc2)C(=O)N(C)[C@@H](C)C(=O)N(C)[C@@H](C)C(=O)N[C@@H]([C@@H](C)O)C(=O)N(C)CC(=O)N(C)[C@@H](Cc2ccccc2)C(=O)N[C@H](C(=O)N(C)[C@@H](Cc2ccccc2)C(=O)N[C@@H](C)C(=O)N2CCCCC2)CC(=O)N(C)[C@H](C)C(=O)N(C)[C@@H](C)C(=O)N[C@@H](C)C(=O)N1C` [DP-363] ([dNMeA][NMeA]A[NMeL]F[NMeA][NMeA]T[Sar][NMeF]D[NMeF]A-Piperidide; lactam N-11), the Papp at 18 hours, 50 µM in series [1] stood at 5 ×10⁻⁶ cm/s. Besides, in series [2], the microsomal CLint at 1 uM was found to be 15 µL/min/mg.

For the compound `CC[C@H](C)[C@@H]1NC(=O)[C@@H]2CCCN2C(=O)[C@H](CC(C)C)N(C)C(=O)[C@H](Cc2ccccc2)NC(=O)CCCN(C)C(=O)C[C@@H](C(=O)N(C)[C@@H](Cc2ccccc2)C(=O)N[C@@H](C)C(=O)N2CCCCC2)NC(=O)[C@H]([C@@H](C)O)NC(=O)[C@H](CC(C)C)NC(=O)[C@H](Cc2ccccc2)N(C)C(=O)CNC(=O)[C@H](CC(C)C)N(C)C1=O` [DP-364] ([NMeGABA]F[NMeL]PI[NMeL]G[NMeF]LTD[NMeF]A-Piperidide; lactam N-11), in series [1], the Papp at 18 hours, 50 µM was found to be 28 ×10⁻⁶ cm/s. Besides, the microsomal CLint at 1 uM in series [2] amounted to 75 µL/min/mg.

Take `CC(C)C[C@@H]1NC(=O)[C@H](CC(C)C)N(C)C(=O)CNC(=O)[C@H](C(C)C)N(C)C(=O)[C@H](C)N(C)C(=O)[C@H]([C@@H](C)O)NC(=O)[C@H](C)N(C)C(=O)CCCN(C)C(=O)C[C@@H](C(=O)N(C)[C@@H](Cc2ccccc2)C(=O)N[C@@H](C)C(=O)N2CCCCC2)NC(=O)[C@H](Cc2ccccc2)NC(=O)[C@H](CC(C)C)N(C)C1=O` [DP-365] ([NMeGABA][NMeA]T[NMeA][NMeV]G[NMeL]L[NMeL]FD[NMeF]A-Piperidide; lactam N-11): the Papp at 18 hours, 50 µM in series [1] amounted to 20 ×10⁻⁶ cm/s. Moreover, the microsomal CLint at 1 uM in series [2] came out at 35 µL/min/mg.

Regarding `CC(C)C[C@H]1C(=O)N[C@@H](C)C(=O)N(C)[C@@H](Cc2ccccc2)C(=O)N(C)[C@@H](C(C)C)C(=O)N[C@@H](C)C(=O)N(C)[C@@H](C)C(=O)N[C@H](C(=O)N(C)[C@@H](Cc2ccccc2)C(=O)N[C@@H](C)C(=O)N2CCCCC2)CC(=O)N(C)[C@@H](C)C(=O)N(C)[C@@H](Cc2ccccc2)C(=O)N[C@@H]([C@@H](C)O)C(=O)N(C)[C@@H](C)C(=O)N1C` [DP-367] ([NMeA][NMeF]T[NMeA][NMeL]A[NMeF][NMeV]A[NMeA]D[NMeF]A-Piperidide; lactam N-11), the Papp at 18 hours, 50 µM in series [1] came out at 12 ×10⁻⁶ cm/s. The microsomal CLint at 1 uM in series [2] is 17 µL/min/mg.
